{"source": "patent US6548469B2", "about": "“Cleaning compositions” (Merck Patent GmbH, priority 1996, dated 2003)", "origin": "cited, not measured here", "settings": "use in cosmetics formulations on humans", "data": [{"smiles": "CCCCN(CCC(=O)OCC)C(C)=O", "note": "[ethyl 3-(N-butylacetamino)propionate]", "values": [{"measurement": "skin and mucosa tolerance", "value": "outstanding"}, {"measurement": "toxic, allergizing or sensitizing properties", "value": "without toxic, allergizing or sensitizing properties"}]}]}
